Series [1] is described as follows: Stability of the compound in mouse plasma assessed as parent compound remaining at 1 uM measured after 5 mins. The format is ADME, cell-free. To be noted: read-out: Stabilty.
Series [2] is described as follows: Cmax in overnight-fasted ICR mouse systemic circulation at 50 mg/kg, po measured after 1 hr by LC-MS/MS analysis. The format is ADME, organism-based. Details: route oral, time 1 hrs, dose 50 mg/kg.
A short description of series [3]: Cmax in overnight-fasted ICR mouse systemic circulation assessed as 5-[3-(4-Cyclopropyl-3,4-dihydro-2H-quinoxaline-1-carbonyl)-pyridin-4-yloxy]-benzofuran-3-carboxylic acid at 50 mg/kg, po measured after 1 hr by LC-MS/MS analysis. The format is ADME, organism-based. On the set-up: route oral, dose 50 mg/kg, time 1 hrs. To be noted: in vivo.
A short description of series [4]: Cmax in overnight-fasted ICR mouse gallbladder tissue assessed as 5-[3-(4-Cyclopropyl-3,4-dihydro-2H-quinoxaline-1-carbonyl)-pyridin-4-yloxy]-benzofuran-3-carboxylic acid at 50 mg/kg, po measured after 1 hr by LC-MS/MS analysis. Type of series: ADME, organism-based, Gall bladder. On the set-up: route oral, time 1 hrs, dose 50 mg/kg. To be noted: in vivo.
Series [5] is described as follows: Cmax in overnight-fasted ICR mouse bile assessed as 5-[3-(4-Cyclopropyl-3,4-dihydro-2H-quinoxaline-1-carbonyl)-pyridin-4-yloxy]-benzofuran-3-carboxylic acid at 50 mg/kg, po measured after 1 hr by LC-MS/MS analysis. The format is ADME, organism-based. To be noted: in vivo. Details: route oral, time 1 hrs, dose 50 mg/kg.
Series [6] can be described thus: Peak drug concentration in overnight-fasted ICR mouse ileum at 50 mg/kg, po measured after 2 hr by LC-MS/MS analysis. The format is ADME, organism-based. Details: route oral, dose 50 mg/kg, time 2 hrs.
A short description of series [7]: Peak drug concentration in overnight-fasted ICR mouse colon at 50 mg/kg, po measured after 4 hr by LC-MS/MS analysis. Type of series: ADME, organism-based. On the set-up: route oral, time 4 hrs, dose 50 mg/kg.

Regarding `CCOC(=O)c1coc2cc(Cl)c(Oc3ccncc3C(=O)N3CCN(C4CC4)c4ccccc43)cc12`, in series [1], the remaining at 5 min, 1 µM worked out at 92.4%.

Regarding `CCCOC(=O)c1coc2ccc(Oc3ccncc3C(=O)N3CCN(C4CC4)c4ccccc43)cc12`, the remaining at 5 min, 1 µM in series [1] was determined as 12.3%.

With `COC(=O)c1coc2ccc(Oc3ccncc3C(=O)N3CCN(C4CC4)c4ccccc43)cc12`, the remaining at 5 min, 1 µM in series [1] is 71%.

Regarding `CCOC(=O)c1coc2ccc(Oc3ccncc3C(=O)N3CCN(C4CC4)c4ccccc43)cc12`, in series [1], the remaining at 5 min, 1 µM turned out to be 38.5%.

Consider `CCOCOC(=O)c1coc2ccc(Oc3ccncc3C(=O)N3CCN(C4CC4)c4ccccc43)cc12`, for which the Cmax in series [2] is 3 ng/mL; in series [3], 80 ng/mL; in series [4] it was 80 ng/mL; in series [5], 80 ng/mL; in series [6] it was 10200 ng/g; in series [7], 2700 ng/g.

These data come from ChEMBL document CHEMBL4765387, “Design of G-protein-coupled bile acid receptor 1 (GPBAR1, TGR5) soft drugs with reduced gallbladder-filling effects” (Eur J Med Chem, 2020).
